# Values quoted from earlier work as cited in patent US20240274231A1, “Method, System and Computer Program Product for Determining Peptide Immunogenicity” (MyNeo NV, priority 2020, published 2024).
# Like-named read-outs stand apart in the source and are kept apart here.
# Tested on: CD8+ T cell responses
# Details: stimulated IFN gamma ELISpot, peptide specific CD8+ T-cell responses among eleven evaluable breast cancer patients, vaccine plus poly-ICLC
sequence,measurement,setting,value
"SLFRAVITK [MAGGE-A196-104, HLA-A3 MAGE-A196-104 vaccine peptide]",ELISpot,,1 borderline
same,ELISpot,listed as MAGE-A196-104,borderline response
